Data set [1] relates to squamous cell carcinoma cultures. In words: Cell growth inhibition, MTT assay, carcinoma. In kind it is cell-based, human. The settings on record: 18 hours treatment, 72 hours total growth time. As for the experimental part: FIG. 6C: Carcinoma cells and HDF's were seeded overnight into 96 well plates at 2000 and 6000 cells per well respectively. Cisplatin preparations were added to wells for 18 hours as noted on the graph than washed out. After 72 hours cell viability of assessed by a commercial MTT assay (WST assay, Boehringer Mannheim). Wells were executed in duplicate.
Nanocapsules were prepared as described in Example 1 to encapsulate cisplatin, a […] molecule and a common cancer chemotherapeutic with serious side effects. A coating weight ratio of 1:100 was used and irregular nanocapsules of 29±3 nm were produced. […] Cells were seeded overnight into 96 well plates, treated for 18 hours with increasing amounts of encapsulated or unencapsulated drug, then assessed for cell growth inhibition using an MTT assay […] for total growth time of 72 hours. Results are illustrated in FIG. 6C.

The test system of data set [2] is human dermal fibroblast (HDF) cultures. Put plainly: Cell growth inhibition, MTT assay, fibroblasts. It is filed as cell-based. The settings on record: 18 hours treatment, 72 hours total growth time. For orientation: Tetrazolium dyes change colour on reduction, which living cells bring about.
Method: Cells were seeded overnight into 96 well plates, treated for 18 hours with increasing amounts of encapsulated or unencapsulated drug, then assessed for cell growth inhibition using an MTT assay 48 hours later for total growth time of 72 hours.

As for `N.N.[Cl][Pt][Cl]` [unencapsulated drug, cisplatin], in data set [1], the “inhibition concentration (IC50)” value was 525 µg/mL. Besides, the “Cell death of nontarget cells” value in data set [2] is “killed”.

Values taken from patent US20030170893A1, “NANOCAPSULE ENCAPSULATION SYSTEM AND METHOD” (Genesegues, Inc., priority 2000, published 2003).
